Publication PMC3848336, “Aurora Isoform Selectivity: Design and Synthesis of Imidazo[4,5-b]pyridine Derivatives as Highly Selective Inhibitors of Aurora-A Kinase in Cells” (Journal of Medicinal Chemistry, 2013)

Experiments:
Assay in all cases: Kinase selectivity profiling
Format in all cases: biochemical
p38g MAPK = p38g MAPK (Homo sapiens, UniProt P53778); settings: 110-kinase panel
Excerpt: (§1) Compound 28c was profiled against a panel of 110 kinases at the International Centre for Protein Kinase Profiling, Division of Signal Transduction Therapy, University of Dundee. Compound 40f was profiled against a panel of 50 kinases (MRC-PPU Express Screen) also at the International Centre for Protein Kinase Profiling.

EPH-A4 = EPH-A4 (Homo sapiens, UniProt P54764); settings: 110-kinase panel, read-out: % activity remaining, EPH2A4
Excerpt: as §1

PIM2 = PIM2 (Homo sapiens, UniProt Q9P1W9); settings: 110-kinase panel
Sequence of PIM2 (Q9P1W9 whole entry): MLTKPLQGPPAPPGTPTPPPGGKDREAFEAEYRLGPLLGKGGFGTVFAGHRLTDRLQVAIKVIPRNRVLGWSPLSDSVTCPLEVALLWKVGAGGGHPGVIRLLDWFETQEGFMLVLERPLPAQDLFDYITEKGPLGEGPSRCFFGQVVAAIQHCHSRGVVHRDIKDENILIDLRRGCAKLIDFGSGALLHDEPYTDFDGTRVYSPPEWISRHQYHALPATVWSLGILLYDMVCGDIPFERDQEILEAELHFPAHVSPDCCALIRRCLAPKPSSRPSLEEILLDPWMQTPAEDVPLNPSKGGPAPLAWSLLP
Excerpt: as §1

MELK = MELK (Homo sapiens, UniProt Q14680); settings: 110-kinase panel
Excerpt: as §1

MARK4 = MARK4 (Homo sapiens, UniProt Q96L34); settings: 110-kinase panel
Sequence of MARK4 (Q96L34 whole entry): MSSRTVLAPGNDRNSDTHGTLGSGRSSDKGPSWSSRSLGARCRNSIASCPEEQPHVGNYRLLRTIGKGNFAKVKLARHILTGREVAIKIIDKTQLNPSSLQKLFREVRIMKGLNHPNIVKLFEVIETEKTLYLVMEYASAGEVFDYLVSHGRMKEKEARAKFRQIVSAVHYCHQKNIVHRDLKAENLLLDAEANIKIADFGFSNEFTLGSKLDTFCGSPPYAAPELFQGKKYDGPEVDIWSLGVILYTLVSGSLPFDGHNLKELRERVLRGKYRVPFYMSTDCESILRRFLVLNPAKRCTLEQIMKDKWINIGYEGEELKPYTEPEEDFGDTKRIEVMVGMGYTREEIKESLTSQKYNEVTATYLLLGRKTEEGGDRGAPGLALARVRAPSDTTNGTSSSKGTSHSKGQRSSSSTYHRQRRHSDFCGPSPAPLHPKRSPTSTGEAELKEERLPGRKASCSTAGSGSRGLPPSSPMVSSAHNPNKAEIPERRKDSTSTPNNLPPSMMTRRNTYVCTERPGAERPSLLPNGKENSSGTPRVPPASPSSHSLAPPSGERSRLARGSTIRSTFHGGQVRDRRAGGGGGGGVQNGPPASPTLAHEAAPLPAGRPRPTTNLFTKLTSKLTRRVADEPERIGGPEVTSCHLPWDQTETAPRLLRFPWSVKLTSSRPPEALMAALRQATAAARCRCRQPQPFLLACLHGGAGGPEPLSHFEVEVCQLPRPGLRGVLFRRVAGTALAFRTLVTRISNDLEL
Excerpt: as §1

ERK1 = ERK1 (Homo sapiens, UniProt P27361); settings: 110-kinase panel
Excerpt: as §1

BRSK2 = BRSK2 (Homo sapiens, UniProt Q8IWQ3); settings: 110-kinase panel
Excerpt: as §1

NEK2a = NEK2a (Homo sapiens, UniProt P51955); settings: 110-kinase panel
Excerpt: as §1

EPH-B4 = EPH-B4 (Homo sapiens, UniProt P54760); settings: 110-kinase panel, read-out: % activity remaining, EPH2B4
Excerpt: as §1

AMPK = settings: 1 µM; 110-kinase panel
Excerpt: as §1

CSK = CSK (Homo sapiens, UniProt P41240); settings: 110-kinase panel
Excerpt: as §1

MINK1 = MINK1 (Homo sapiens, UniProt Q8N4C8); settings: 110-kinase panel
Excerpt: as §1

p38b MAPK = p38b MAPK (Homo sapiens, UniProt Q15759); settings: 110-kinase panel
Sequence of p38b MAPK (Q15759 whole entry): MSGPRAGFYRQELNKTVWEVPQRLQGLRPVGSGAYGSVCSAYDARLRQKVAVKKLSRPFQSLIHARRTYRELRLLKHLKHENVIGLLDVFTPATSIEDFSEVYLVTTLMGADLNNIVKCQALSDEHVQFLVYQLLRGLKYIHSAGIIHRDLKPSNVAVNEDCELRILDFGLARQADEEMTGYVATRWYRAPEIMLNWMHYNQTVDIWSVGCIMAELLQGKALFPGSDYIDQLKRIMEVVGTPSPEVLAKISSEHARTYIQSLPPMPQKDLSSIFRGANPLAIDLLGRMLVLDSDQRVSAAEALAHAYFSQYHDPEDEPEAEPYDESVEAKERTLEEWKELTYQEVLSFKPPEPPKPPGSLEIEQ
Excerpt: as §1

EPH-B1 = EPH-B1 (Homo sapiens, UniProt P54762); settings: 110-kinase panel, read-out: % activity remaining, EPH2B1
Excerpt: as §1

MKK6 = MKK6 (Homo sapiens, UniProt P52564); settings: 110-kinase panel
Excerpt: as §1

MARK1 = MARK1 (Homo sapiens, UniProt Q9P0L2); settings: 110-kinase panel
Excerpt: as §1

CDK2-Cyclin A = CDK2-Cyclin A (Homo sapiens, UniProt P24941); settings: 110-kinase panel, read-out: % activity remaining, CDK22Cyclin A
Excerpt: as §1

MLK1 = MLK1 (Homo sapiens, UniProt P80192); settings: 110-kinase panel
Excerpt: as §1

BRSK1 = BRSK1 (Homo sapiens, UniProt Q8TDC3); settings: 110-kinase panel
Excerpt: as §1

EPH-B2 = EPH-B2 (Homo sapiens, UniProt P29323); settings: 110-kinase panel, read-out: % activity remaining, EPH2B2
Excerpt: as §1

ASK1 = ASK1 (Homo sapiens, UniProt Q99683); settings: 110-kinase panel
Sequence of ASK1 (Q99683 whole entry): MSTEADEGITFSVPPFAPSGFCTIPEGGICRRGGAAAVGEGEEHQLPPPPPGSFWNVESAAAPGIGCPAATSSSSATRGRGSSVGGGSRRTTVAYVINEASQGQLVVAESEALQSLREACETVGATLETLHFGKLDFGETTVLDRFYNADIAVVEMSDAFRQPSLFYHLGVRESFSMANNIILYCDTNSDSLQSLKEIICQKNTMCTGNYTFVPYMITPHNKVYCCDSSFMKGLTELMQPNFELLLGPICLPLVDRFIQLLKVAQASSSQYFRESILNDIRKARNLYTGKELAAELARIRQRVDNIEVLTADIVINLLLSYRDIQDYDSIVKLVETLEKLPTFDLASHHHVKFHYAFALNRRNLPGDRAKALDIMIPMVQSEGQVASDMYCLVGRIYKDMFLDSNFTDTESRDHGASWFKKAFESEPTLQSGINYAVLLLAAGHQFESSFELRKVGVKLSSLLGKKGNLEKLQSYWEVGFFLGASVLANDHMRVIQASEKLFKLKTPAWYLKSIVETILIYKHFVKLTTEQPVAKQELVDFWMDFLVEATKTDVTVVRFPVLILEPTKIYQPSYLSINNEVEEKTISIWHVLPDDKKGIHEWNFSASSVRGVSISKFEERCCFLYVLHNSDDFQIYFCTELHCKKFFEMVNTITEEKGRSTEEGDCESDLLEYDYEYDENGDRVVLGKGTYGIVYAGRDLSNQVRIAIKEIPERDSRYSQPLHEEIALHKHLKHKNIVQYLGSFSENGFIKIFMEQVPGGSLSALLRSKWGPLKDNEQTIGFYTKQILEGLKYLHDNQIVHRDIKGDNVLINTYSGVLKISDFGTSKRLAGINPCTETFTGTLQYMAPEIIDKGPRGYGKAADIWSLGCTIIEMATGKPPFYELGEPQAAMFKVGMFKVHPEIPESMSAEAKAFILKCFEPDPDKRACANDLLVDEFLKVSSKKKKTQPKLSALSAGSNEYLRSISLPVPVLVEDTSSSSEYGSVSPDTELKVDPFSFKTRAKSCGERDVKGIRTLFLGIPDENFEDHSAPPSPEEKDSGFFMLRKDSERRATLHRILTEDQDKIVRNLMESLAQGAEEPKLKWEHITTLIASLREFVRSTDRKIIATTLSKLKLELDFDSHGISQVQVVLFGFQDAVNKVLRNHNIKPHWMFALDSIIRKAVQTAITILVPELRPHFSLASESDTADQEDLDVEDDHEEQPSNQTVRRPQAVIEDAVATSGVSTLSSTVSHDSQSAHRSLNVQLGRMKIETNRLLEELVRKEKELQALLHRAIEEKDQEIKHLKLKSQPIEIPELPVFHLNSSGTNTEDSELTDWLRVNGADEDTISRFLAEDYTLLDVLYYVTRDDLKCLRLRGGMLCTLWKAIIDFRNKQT
Excerpt: as §1

IKKe = IKKe (Homo sapiens, UniProt Q14164); settings: 110-kinase panel
Excerpt: as §1

MEKK1 = MEKK1 (Homo sapiens, UniProt Q13233); settings: 110-kinase panel
Excerpt: as §1

ERK8 = ERK8 (Homo sapiens, UniProt Q8TD08); settings: 110-kinase panel
Excerpt: as §1

MAPKAP-K3 = MAPKAP-K3 (Homo sapiens, UniProt Q16644); settings: 110-kinase panel, read-out: % activity remaining, MAPKAP2K3
Sequence of MAPKAP-K3 (Q16644 whole entry): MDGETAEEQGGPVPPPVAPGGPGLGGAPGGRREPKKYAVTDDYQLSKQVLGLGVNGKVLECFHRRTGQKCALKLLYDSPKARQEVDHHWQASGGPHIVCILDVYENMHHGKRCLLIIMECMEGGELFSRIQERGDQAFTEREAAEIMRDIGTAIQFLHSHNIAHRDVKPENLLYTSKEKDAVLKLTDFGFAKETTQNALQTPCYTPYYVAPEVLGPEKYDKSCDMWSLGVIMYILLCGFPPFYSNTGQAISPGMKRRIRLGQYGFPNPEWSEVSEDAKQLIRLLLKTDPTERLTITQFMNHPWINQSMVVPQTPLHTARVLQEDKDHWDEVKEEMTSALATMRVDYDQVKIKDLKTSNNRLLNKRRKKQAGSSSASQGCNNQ
Excerpt: as §1

TAO1 = TAO1 (Homo sapiens, UniProt Q7L7X3); settings: 110-kinase panel
Excerpt: as §1

MKK2 = MKK2 (Homo sapiens, UniProt P36507); settings: 110-kinase panel
Sequence of MKK2 (P36507 whole entry, species assumed): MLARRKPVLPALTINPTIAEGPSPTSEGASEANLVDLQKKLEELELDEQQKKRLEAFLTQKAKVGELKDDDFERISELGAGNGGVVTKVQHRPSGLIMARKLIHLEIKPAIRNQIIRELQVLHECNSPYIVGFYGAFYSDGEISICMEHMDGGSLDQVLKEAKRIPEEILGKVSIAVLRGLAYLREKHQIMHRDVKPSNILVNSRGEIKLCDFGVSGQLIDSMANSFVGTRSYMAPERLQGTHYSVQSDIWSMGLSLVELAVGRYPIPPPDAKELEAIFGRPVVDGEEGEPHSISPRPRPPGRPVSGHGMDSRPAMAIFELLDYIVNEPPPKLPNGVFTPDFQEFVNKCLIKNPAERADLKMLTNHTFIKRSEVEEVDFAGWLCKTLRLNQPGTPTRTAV
Excerpt: as §1

YES1 = YES1 (Homo sapiens, UniProt P07947); settings: 110-kinase panel
Excerpt: as §1

JNK2 = JNK2 (Homo sapiens, UniProt P45984); settings: 110-kinase panel
Excerpt: as §1

PRAK = PRAK (Homo sapiens, UniProt Q8IW41); settings: 110-kinase panel
Excerpt: as §1

DYRK2 = DYRK2 (Homo sapiens, UniProt Q92630); settings: 110-kinase panel
Excerpt: as §1

MARK2 = MARK2 (Homo sapiens, UniProt Q7KZI7); settings: 110-kinase panel
Excerpt: as §1

IR = IR (Homo sapiens, UniProt P06213); settings: 110-kinase panel
Excerpt: as §1

PKCz = PKCz (Homo sapiens, UniProt Q05513); settings: 110-kinase panel
Excerpt: as §1

JNK3 = JNK3 (Homo sapiens, UniProt P53779); settings: 110-kinase panel
Excerpt: as §1

MNK2 = MNK2 (Homo sapiens, UniProt Q9HBH9); settings: 110-kinase panel
Sequence of MNK2 (Q9HBH9 whole entry): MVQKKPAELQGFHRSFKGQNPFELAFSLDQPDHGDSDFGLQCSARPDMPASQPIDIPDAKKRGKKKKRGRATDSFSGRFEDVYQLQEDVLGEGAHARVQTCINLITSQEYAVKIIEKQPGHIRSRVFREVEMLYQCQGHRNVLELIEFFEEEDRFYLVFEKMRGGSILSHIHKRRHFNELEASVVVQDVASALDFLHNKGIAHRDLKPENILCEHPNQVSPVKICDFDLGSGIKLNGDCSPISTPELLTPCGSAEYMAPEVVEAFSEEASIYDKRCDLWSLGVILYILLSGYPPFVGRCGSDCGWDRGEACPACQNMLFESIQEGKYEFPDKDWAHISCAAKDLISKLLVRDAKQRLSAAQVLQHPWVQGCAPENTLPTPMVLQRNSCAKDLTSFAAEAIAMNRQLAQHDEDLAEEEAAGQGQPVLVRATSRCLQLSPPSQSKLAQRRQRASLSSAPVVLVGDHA
Excerpt: as §1

PAK6 = PAK6 (Homo sapiens, UniProt Q9NQU5); settings: 110-kinase panel
Excerpt: as §1

RSK2 = RSK2 (Homo sapiens, UniProt P51812); settings: 110-kinase panel
Sequence of RSK2 (P51812 whole entry, species assumed): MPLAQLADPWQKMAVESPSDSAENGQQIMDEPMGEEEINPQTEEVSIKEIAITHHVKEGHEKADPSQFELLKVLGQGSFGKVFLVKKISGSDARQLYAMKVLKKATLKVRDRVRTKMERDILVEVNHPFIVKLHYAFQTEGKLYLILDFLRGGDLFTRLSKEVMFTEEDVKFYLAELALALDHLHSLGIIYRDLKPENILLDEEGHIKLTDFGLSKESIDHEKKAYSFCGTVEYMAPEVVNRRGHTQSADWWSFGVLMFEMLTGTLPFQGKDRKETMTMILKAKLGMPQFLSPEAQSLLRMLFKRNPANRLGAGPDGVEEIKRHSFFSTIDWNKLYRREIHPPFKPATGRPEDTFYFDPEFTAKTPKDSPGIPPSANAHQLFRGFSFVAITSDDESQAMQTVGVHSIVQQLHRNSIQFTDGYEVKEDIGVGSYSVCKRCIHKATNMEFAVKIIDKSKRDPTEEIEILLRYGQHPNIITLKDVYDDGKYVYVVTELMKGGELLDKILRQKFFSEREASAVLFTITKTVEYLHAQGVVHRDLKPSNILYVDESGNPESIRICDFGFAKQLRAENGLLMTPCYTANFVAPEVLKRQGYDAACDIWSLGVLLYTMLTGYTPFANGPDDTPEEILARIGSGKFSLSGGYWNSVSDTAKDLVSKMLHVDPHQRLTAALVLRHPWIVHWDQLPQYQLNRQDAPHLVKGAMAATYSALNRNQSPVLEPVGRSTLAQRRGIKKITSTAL
Excerpt: as §1

MAPKAP-K2 = MAPKAP-K2 (Homo sapiens, UniProt P49137); settings: 110-kinase panel, read-out: % activity remaining, MAPKAP2K2
Excerpt: as §1

PAK5 = PAK5 (Homo sapiens, UniProt Q9P286); settings: 110-kinase panel
Excerpt: as §1

DYRK3 = DYRK3 (Homo sapiens, UniProt O43781); settings: 110-kinase panel
Excerpt: as §1

For `Cc1nn(C)cc1-c1nc2c(Oc3ccc(C(=O)Nc4ccccc4)cc3)c(Cl)cnc2[nH]1` [compound 28c, 4-((6-Chloro-2-(1,3-dimethyl-1H-pyrazol-4-yl)-3H-imidazo[4,5-b]pyridin-7-yl)oxy)-N-phenylbenzamide], the remaining activity at 1 µM (p38g MAPK) was 96%, the remaining activity at 1 µM (EPH-A4) was 112% and the remaining activity at 1 µM (PIM2) was 117%. It also gave a remaining activity at 1 µM (MELK) of 79%, a remaining activity at 1 µM (MARK4) of 85% and a remaining activity at 1 µM (ERK1) of 172%. For the same molecule, the remaining activity at 1 µM (BRSK2) was 111%, the remaining activity at 1 µM (NEK2a) was 96% and the remaining activity at 1 µM (EPH-B4) was 102%. For the same molecule, the “% activity remaining, AMPK” value (AMPK) was 83%, the remaining activity at 1 µM (CSK) was 76% and the remaining activity at 1 µM (MINK1) was 75%. It also gave a remaining activity at 1 µM (p38b MAPK) of 89%, a remaining activity at 1 µM (EPH-B1) of 127% and a remaining activity at 1 µM (MKK6) of 95%. It also gave a remaining activity at 1 µM (MARK1) of 103%, a remaining activity at 1 µM (CDK2-Cyclin A) of 58% and a remaining activity at 1 µM (MLK1) of 31%. For the same molecule, the remaining activity at 1 µM (BRSK1) was 109%, the remaining activity at 1 µM (EPH-B2) was 91% and the remaining activity at 1 µM (ASK1) was 119%. It also gave a remaining activity at 1 µM (IKKe) of 101%, a remaining activity at 1 µM (MEKK1) of 93% and a remaining activity at 1 µM (ERK8) of 36%. The remaining activity at 1 µM (MAPKAP-K3) was 92%, the remaining activity at 1 µM (TAO1) was 100% and the remaining activity at 1 µM (MKK2) was 94%. The remaining activity at 1 µM (YES1) was 111%, the remaining activity at 1 µM (JNK2) was 90% and the remaining activity at 1 µM (PRAK) was 103%. For the same molecule, the remaining activity at 1 µM (DYRK2) was 87%, the remaining activity at 1 µM (MARK2) was 104% and the remaining activity at 1 µM (IR) was 124%. For the same molecule, the remaining activity at 1 µM (PKCz) was 100%, the remaining activity at 1 µM (JNK3) was 87% and the remaining activity at 1 µM (MNK2) was 109%. It also gave a remaining activity at 1 µM (PAK6) of 101%, a remaining activity at 1 µM (RSK2) of 94% and a remaining activity at 1 µM (MAPKAP-K2) of 91%. It also gave a remaining activity at 1 µM (PAK5) of 56% and a remaining activity at 1 µM (DYRK3) of 102%.
